Experimental data reported in PubChem BioAssay AID1259408 (Genetic Toxicology Data Bank (GENE-TOX), 2018).
Activity calls are given as the source filed them. No rule for the calls is given here.

System: GENE-TOX genotoxicity assays, various organisms and cells
Assay: GENE-TOX mutagenicity studies

For C1CN1c1nc(N2CC2)nc(N2CC2)n1, the mutagenic call (Species/Cell Type: Allium cepa, Assay Type: Chromosome aberrations, Assay Code: ALC+, Evaluation Type: Evaluation A (Pre-1980)) was “active; positive”, the mutagenic call (Species/Cell Type: Arabidopsis species, Assay Type: Gene mutation, Assay Code: ARM-, Evaluation Type: Evaluation A (Pre-1980)) was “inactive; negative” and the mutagenic call (Species/Cell Type: Drosophila melanogaster, Assay Type: Sex-linked recessive lethal gene mutation, Assay Code: SRL+, Evaluation Type: Evaluation A (Pre-1980)) was “active; positive”. The mutagenic call (Species/Cell Type: Drosophila melanogaster, Sex: Male, Assay Type: Heritable translocation test, chromosome aberrations, Assay Code: DHT+, Evaluation Type: Evaluation A (Pre-1980)) was “active; positive”, the mutagenic call (Species/Cell Type: F1 mouse, Sex: Male, Assay Type: Sperm morphology, Assay Code: SPF+, Evaluation Type: Evaluation A (Pre-1980)) was “active; positive” and the mutagenic call (Species/Cell Type: Human lymphocytes, Assay Type: Sister-chromatid exchange (SCE) in vitro, Assay Code: SCL+, Evaluation Type: Evaluation B (Post-1980)) was “active; positive”. The mutagenic call (Species/Cell Type: Human, Assay Type: Sister-chromatid exchange (SCE) in vitro, Assay Code: SC1+, Evaluation Type: Evaluation B (Post-1980)) was “active; positive”, the mutagenic call (Species/Cell Type: Mammalian germ cells, Sex: Male, Assay Type: Chromosome aberrations in vivo, Assay Code: CY9+, Evaluation Type: Evaluation A (Pre-1980)) was “active; positive” and the mutagenic call (Species/Cell Type: Mammalian oocytes or early embryo, Assay Type: Chromosome aberrations in vivo, Assay Code: CYO+, Evaluation Type: Evaluation A (Pre-1980)) was “active; positive”. The mutagenic call (Species/Cell Type: Mammalian polychromatic erythrocytes, Assay Type: Micronucleus test, chromosome aberrations, Assay Code: MNT+, Evaluation Type: Evaluation A (Pre-1980)) was “active; positive”, the mutagenic call (Species/Cell Type: Mouse germ cells, Sex: Male, Assay Type: Unscheduled DNA synthesis (UDS) in vivo, DNA effects, Assay Code: UDT+, Evaluation Type: Evaluation A (Pre-1980)) was “active; positive” and the mutagenic call (Species/Cell Type: Mouse, Sex: Female, Assay Type: Spot test, gene mutation, Assay Code: MSTT, Evaluation Type: Evaluation A (Pre-1980)) was “no conclusion”. For the same compound, the mutagenic call (Species/Cell Type: Mouse, Sex: Male, Assay Type: Heritable translocation test, chromosome aberrations, Assay Code: HTT+, Evaluation Type: Evaluation A (Pre-1980)) was “active; positive”, the mutagenic call (Species/Cell Type: Mouse, Sex: Male, Assay Type: Specific locus test, gene mutation, Assay Code: SLT+, Evaluation Type: Evaluation A (Pre-1980)) was “active; positive” and the mutagenic call (Species/Cell Type: Mouse, Sex: Male, Assay Type: Sperm morphology, Assay Code: SPI+, Evaluation Type: Evaluation A (Pre-1980)) was “active; positive”. For the same compound, the mutagenic call (Species/Cell Type: Nonhuman bone marrow, Assay Type: Chromosome aberrations, in vivo, Assay Code: CY#+, Evaluation Type: Evaluation A (Pre-1980)) was “active; positive”, the call (Species/Cell Type: Nonhuman, Assay Type: In vivo carcinogenicity studies, Assay Code: CCG+L, Evaluation Type: Evaluation A (Pre-1980)) was “active; positive” and the mutagenic call (Species/Cell Type: Nonhuman, Assay Type: Sister-chromatid exchange (SCE) in vitro, Assay Code: SC2+D, Dose Response: With dose response, Evaluation Type: Evaluation B (Post-1980)) was “active; positive”. For the same compound, the mutagenic call (Species/Cell Type: Nonhuman, Assay Type: Sister-chromatid exchange (SCE) in vivo, Assay Code: SC3+D, Dose Response: With dose response, Evaluation Type: Evaluation B (Post-1980)) was “active; positive”, the mutagenic call (Species/Cell Type: Rabbit, Sex: Male, Assay Type: Sperm morphology, Assay Code: SPRT, Evaluation Type: Evaluation A (Pre-1980)) was “no conclusion” and the mutagenic call (Species/Cell Type: Rodents, Sex: Male, Assay Type: Dominant lethal test, Assay Code: DLT+D, Dose Response: With dose response, Evaluation Type: Evaluation A (Pre-1980)) was “active; positive”. The mutagenic call (Species/Cell Type: Saccharomyces cerevisiae, Assay Type: Forward and reverse gene mutation, mitotic recombination and gene conversion, host-mediated assay, Assay Code: HME+, Evaluation Type: Evaluation A (Pre-1980)) was “active; positive”, the mutagenic call (Species/Cell Type: Saccharomyces cerevisiae, Assay Type: Forward gene mutation, Assay Code: YEF+, Evaluation Type: Evaluation A (Pre-1980)) was “active; positive” and the mutagenic call (Species/Cell Type: Saccharomyces cerevisiae, Assay Type: Mitotic recombination or gene conversion, Assay Code: YEC+, Evaluation Type: Evaluation A (Pre-1980)) was “active; positive”. For the same compound, the mutagenic call (Species/Cell Type: Saccharomyces cerevisiae, Assay Type: Mitotic recombination or gene conversion, Assay Code: YEH+, Evaluation Type: Evaluation A (Pre-1980)) was “active; positive”, the mutagenic call (Species/Cell Type: Saccharomyces cerevisiae, Assay Type: Reverse gene mutation, Assay Code: YER+, Evaluation Type: Evaluation A (Pre-1980)) was “active; positive” and the mutagenic call (Species/Cell Type: Vicia faba, Assay Type: Chromosome aberrations, Assay Code: VIC+, Evaluation Type: Evaluation A (Pre-1980)) was “active; positive”.
O=C1CN(/N=C/C=C/c2ccc([N+](=O)[O-])o2)C(=O)N1 was tested, and the mutagenic call (Species/Cell Type: Escherichia coli WP2, Assay Type: Tryptophan reverse gene mutation, Assay Code: WP2+, Evaluation Type: Evaluation A (Pre-1980)) was “active; positive” and the mutagenic call (Species/Cell Type: Escherichia coli WP2 UVRA, Assay Type: Tryptophan reverse gene mutation, Assay Code: WPU-, Evaluation Type: Evaluation A (Pre-1980)) was “inactive; negative”.
